Entries after “also recorded” stand apart in the source; their conditions may differ.
Tests used:
Ta tumors = experiment: Recurrence in patients with Ta tumors (Kaplan-Meier); assay type: in vivo
Text: The Kaplan-Meier Curve is a conventional tool used to project treatment outcome such as the % of patients who remain alive or free of disease at a certain time interval. (Martin Bland, Introduction to Medical Statistics (1994) Oxford Press). The Kaplan Meier Curve was used to compare the customary experimental therapy to the high efficacy therapy. When compared to the customary experimental therapy, the high efficacy therapy increased the percentage of all patients who are projected to remain recurrence-freefor longer than 5 years from 20 to 41%. The improvement was similar for patients with T1 tumors which were growing in the deeper bladder tissue layers (i.e. increase from 16% to 44%) and for patients with Ta tumors which were growing in the urothelial surface of the bladder (i.e. increase from 20% to 37%).

[1] = Blood levels of MMC during high efficacy therapy; assay type: in vivo, patients
[2] = Toxicity comparison of high efficacy and customary intravesical MMC therapy (Table 1); assay type: in vivo, patients
[3] = system: large tumors, i.e. tumors >5 cm; experiment: Recurrence in patients with large tumors; assay type: in vivo; details: high efficacy therapy; large tumors >5 cm
[4] = system: Ta, T1 or Tis bladder tumors; experiment: Clinical trial of adjuvant intravesical MMC after transurethral resection: recurrence in Ta, T1 or Tis bladder tumor patients (Example 1, Table 2, FIG. 1); assay type: in vivo; details: for median time to recurrence: all patients (Ta, T1, Tis); for percentage of patients projected to be tumor recurrence-free at the end of 5 years: all patients, Kaplan-Meier projection
Protocol: One hundred and eight patients with histologically proven primary or recurrent transitional cell carcinoma of grade I to grade III and of stage Ta, T1 or Tis who had their tumors completely resected received the high efficacy therapy within 4 weeks after surgery.
The high efficacy therapy was administered once weekly for a total of six treatments. The MMC dosing solution was made by adding 40 mg of MMC to a vial containing 20 ml of sterile water.
To reduce urine production in the patients during treatment with the MMC dosing solution, the patients were instructed to refrain from fluids for 8 hours prior to and during treatment with the MMC dosing solution. To maintain the pH levels of the urine produced during treatment with the MMC dosing solution, the patients were given 1.3 grams of sodium bicarbonate the night prior to treatment, upon rising on the morning of treatment and 30 minutes prior to treatment. Then a Foley catheter was placed in the bladder of the patients and the bladder was drained by gravity. This was accomplished by holding the catheter end below the level of the bladder. The post void residual urine volume was determined using a bladder ultrasound machine. Drainage of the bladder was repeated until the residual urine volume was less than 10 ml. Drainage was aided by having the patient sit up or stand up, or reach forward while standing. Thereafter, 40 mg of MMC in 20 ml sterile water was instilled intravesically by gravity into the bladder of the patient and retained there for 2 hours. After the 2 hour therapy, bladder contents were drained from the patients and the volume and pH of the contents measured.
For purposes of comparison, 97 matching control patients from whom primary Ta, T1 or Tis bladder tumors had been completely resected were subjected to the customary experimental MMC intravesical therapy weekly for six weeks. These patients were not instructed to refrain from fluids for 8 hours prior to or during the customary experimental therapy. Prior to instillation of the 1 mg/ml MMC dosing solution, the patients were placed in the supine or dorsal lithotomy position and a Foley catheter inserted transurethrally into the bladder of the patients. The bladders were drained by gravity and the post void urine residual volume was measured. No attempts were made to further reduce the residual urine volume. Thereafter, 20 mg of MMC in 20 ml sterile water was instilled intravesically by gravity into the bladders of the patients and retained for 2 hours. After the 2 hour therapy, bladder contents were drained from the patients and the volume and pH of the contents measured.
Cytoscopy was performed on each surviving patient quarterly at three months for 2 years and then at 3 months or six months for the remaining 3 years to look for evidence of visible tumors. Urine cytology was performed on each surviving patient quarterly at three months for 2 years and then at 3 months or six months for the remaining 3 years to look for cells with aneuploid DNA contents. […] If necessary, i.e., if tumor recurrence was suspected, the follow-up included biopsy of the suspicious area and transurethral resection of the bladder tumor. Patients with proven recurrence were treated according to standards in the clinical community.
At each time period the number of patients who had developed histologically proven recurrent or progressive disease on biopsy or cytology was determined. The percentage of patients who remained tumor free at each time period after receiving the high efficacy therapy or the customary experimental therapy is shown in FIG. 1.
The Kaplan-Meier Curve is a conventional tool used to project treatment outcome such as the % of patients who remain alive or free of disease at a certain time interval. (Martin Bland, Introduction to Medical Statistics (1994) Oxford Press). The Kaplan Meier Curve was used to compare the customary experimental therapy to the high efficacy therapy. […]

[5] = previous studies, cited from earlier work
[6] = customary experimental MMC intravesical therapy

With `COC12C(COC(N)=O)C3=C(C(=O)C(C)=C(N)C3=O)N1CC1NC12` (centres unmarked) [MMC] the “percentage of patients projected to remain recurrence-free for longer than 5 years” value (Ta tumors; customary experimental therapy) was 20%, the “percentage of patients projected to remain recurrence-free for longer than 5 years” value (Ta tumors; high efficacy therapy) was 37% and the “blood levels of MMC, in most instances” value [1] was “less than 5 ng/ml”. The “levels of MMC in the blood of the patients, upper bound” value [1] was no more than 0.05 µg/mL, the Allergy ([2]; Customary (n = 96)) was 9 % of patients and the Any toxicity ([2]; Customary (n = 96)) was 64 % of patients. For the same compound, the Cramp ([2]; Customary (n = 96)) was 17 % of patients, the Cystitis ([2]; Customary (n = 96)) was 18 % of patients and the Dermal ([2]; Customary (n = 96)) was 10 % of patients. For the same compound, the Dysuria ([2]; Customary (n = 96)) was 19 % of patients, the Fatigue ([2]; Customary (n = 96)) was 20 % of patients and the Fever ([2]; Customary (n = 96)) was 5 % of patients. For the same compound, the Hematuria ([2]; Customary (n = 96)) was 24 % of patients, the Leukopenia ([2]; Customary (n = 96)) was 0 % of patients and the Malaise ([2]; Customary (n = 96)) was 19 % of patients. For the same compound, the Nausea ([2]; Customary (n = 96)) was 9 % of patients, the Pain ([2]; Customary (n = 96)) was 17 % of patients and the Thrombocytopenia ([2]; Customary (n = 96)) was 0 % of patients. For the same compound, the Urgency ([2]; Customary (n = 96)) was 28 % of patients, the Urinary frequency ([2]; Customary (n = 96)) was 33 % of patients and the Vomiting ([2]; Customary (n = 96)) was 5 % of patients. For the same compound, the Allergy ([2]; High efficacy (n = 104)) was 13 % of patients, the Any toxicity ([2]; High efficacy (n = 104)) was 72 % of patients and the Cramp ([2]; High efficacy (n = 104)) was 15 % of patients. The Cystitis ([2]; High efficacy (n = 104)) was 24 % of patients, the Dermal ([2]; High efficacy (n = 104)) was 15 % of patients and the Dysuria ([2]; High efficacy (n = 104)) was 35 % of patients. The Fatigue ([2]; High efficacy (n = 104)) was 19 % of patients, the Fever ([2]; High efficacy (n = 104)) was 5 % of patients and the Hematuria ([2]; High efficacy (n = 104)) was 26 % of patients. For the same compound, the Leukopenia ([2]; High efficacy (n = 104)) was 1 % of patients, the Malaise ([2]; High efficacy (n = 104)) was 18 % of patients and the Nausea ([2]; High efficacy (n = 104)) was 12 % of patients. The Pain ([2]; High efficacy (n = 104)) was 17 % of patients, the Thrombocytopenia ([2]; High efficacy (n = 104)) was 0 % of patients and the Urgency ([2]; High efficacy (n = 104)) was 22 % of patients. For the same compound, the Urinary frequency ([2]; High efficacy (n = 104)) was 26 % of patients, the Vomiting ([2]; High efficacy (n = 104)) was 4 % of patients and the bone marrow toxicity ([2]; high efficacy therapy) was “did not exhibit any signs of bone marrow toxicity”. For the same compound, the “dysuria, frequency and severity” value ([2]; high efficacy therapy) was “higher frequency of dysuria. But this toxicity was mild and did not result in termination of treatment”, the “other toxicities (dysuria, cystitis, hematuria, cramps), severity” value ([2]; high efficacy therapy, a small number of patients) was “mild” and the “delaying and preventing tumor recurrence, vs customary therapy” value [3] was “more effective”. For the same compound, the “median time to recurrence” value [4, 6] was 292 days, the “percentage of patients projected to be tumor recurrence-free at the end of 5 years” value [4, 6] was 20% and the “percentage of patients projected to remain tumor recurrence free for 5 years, vs customary therapy” value ([4]; high efficacy therapy, Ta, T1, Tis) was “more effective in enhancing the percentage or fraction of Ta, T1, Tis bladder tumor patients that are projected to remain tumor recurrence free for a period of 5 years”. For the same compound, the “rate of recurrence and time interval before tumor recurrence, vs customary therapy” value ([4]; high efficacy therapy, Ta, T1 or Tis) was “more effective at reducing the rate of recurrence and increasing the time interval before tumor recurrence is observed; also recorded: tumors recurred at a later time in patients receiving the high efficacy treatment”, the “median time to recurrence” value ([4]; high efficacy therapy) was 754 days and the “percentage of patients projected to be tumor recurrence-free at the end of 5 years” value ([4]; high efficacy therapy) was 41%. For the same compound, the “systemic dose without significant host toxicity” value ([5]; MMC given systemically) was no more than 50 mg and the “blood level of MMC without significant host toxicity” value [5] was “below 400 ng/ml”.
